Assay results taken from patent publication US8741843B2, “Compositions and methods for inducing angiogenesis” (priority 2006, dated 2014).
Entries after “also recorded” stand apart in the source; their conditions may differ.

What was measured:
Assay type in all cases: cell-based, human
[1] = test system: endothelial cells (HUVEC); assay: Migration of endothelial cells under hypoxia (Chemicon QCM 96-well Migration Assay); settings: 5 hours hypoxia, 10 ng/ml
Description: FIG. 6 is a graph depicting migration of endothelial cells under hypoxia conditions. Endothelial cells (25,000) were incubated in endothelial cells growth medium free supplements in the migration chamber. ADOPep1 (SEQ ID NO:2), 2 (SEQ ID NO:3) and 3 (SEQ ID NO:4) were added to the feeder tray of the migratory kit at 1, 10 and 100 ng/ml for 5 hours hypoxia. Results were determined by a fluorescence ELISA reader and expressed as increase in percentage migration in Relative fluorescence Units.
FIGS. 26a-b are graphs depicting induction of endothelial cell migration under hypoxia by the ADOPEP motifs. Endothelial cells were incubated for 5 hours under hypoxia conditions in the presence of increasing concentrations of ADOPep1 (red line), peptide motif A (dark blue line), peptide motif B (green line) or peptide motif C (light blue line) and the migration of endothelial cells was detected. FIG. 26a—experiment 1; FIG. 26b—experiment 2.
Endothelial cell migration was evaluated by the Chemicon QCM 96-well Migration Assay (Chemicon International, Calif., USA) according to manufacturer's instructions. This kit utilizes a membrane with an 8 μm pore size. Migratory cells on the bottom of the insert membrane are dissociated from the membrane when incubated with cell detachment buffer provided by the kit. […] For the migration assay, HUVEC from passage 3 were incubated in endothelial cell (EC) growth medium free of supplements. After trypsinization, 25,000 EC were incubated in the migration chamber. ADOPeps were added at concentrations of 1, 10 and 100 ng/ml in the feeder tray for chemoattractant migration assay. Time of incubation was 5 hours for endothelial cells under hypoxic conditions. Results were determined in a Fluorescent ELISA reader at 480/520 nm.

ERK½ = ERK½ phosphorylation in endothelial cells under hypoxia (Western blot, densitometry); settings: for percent adjusted volume of pERK band: FIG. 31, cord 1, 10 ng/ml; for ERK½ phosphorylation (in words): endothelial cells under hypoxia; for ERK½ phosphorylation (in words) / incubation time of maximal ERK phosphorylation (densitometry, data not shown): 10 ng/ml; for incubation time of maximal ERK phosphorylation (densitometry, data not shown): hypoxia
Description: FIGS. 30a-b are Western blot analyses depicting induction of phosphorylation of ERK by ADoPep1 and Motif A. Endothelial cells under starvation conditions and 5 hours hypoxia were incubated for 5 (lanes 2 and 6), 20 (lanes 3 and 7), 30 (lanes 4 and 8) and 60 (lanes 5 and 9) minutes with 10 ng/ml ADoPep1 (Lanes 2-5) or Motif A (lanes 6-9) peptides or remained under hypoxia without a further incubation with a peptide (lane 1). After incubation, lysates were prepared, subject to SDS-PAGE and blotting on a nitrocellulose membrane. Western Blot analysis was performed using anti-Phospho ERK½ antibody. […] FIG. 30a—Experiment 1; FIG. 30b—Experiment 2. The percent adjusted volume as determined by a densitometric analysis software to compare net band densities was as follows: FIG. 30a, lane 1-4.5, lane 2-9.3, lane 3-13.7, lane 4-13.3, lane 5-11.2, lane 6-10.7, lane 7-12.4, lane 8-12.3 and lane 9-12.4; FIG. 30b, lane 1-4.21, lane 2-12.4, lane 3-12.5, lane 4-14.8, lane 5-10.9, lane 6-14.9, lane 7-9.8, lane 8-12.7 and lane 9-7.8.
FIG. 31 is a Western blot analysis depicting the level of phosphorylated ERK (pERK) in endothelial cells activated for 20 minutes with ADOPep1 and motif A and inhibited by pERK-inhibitor peptide. Endothelial cells (from cord 1) under starvation conditions and 5 hours hypoxia were incubated with 10 ng/ml ADOPep1 (lanes 3 and 4) or motif A (lanes 1 and 2) peptides in the presence (lanes 2 and 4) or absence (lanes 1 and 3) of p-ERK-inhibitor peptide (Santa Cruz). For control, the endothelial cells under starvation conditions and 5 hours hypoxia (lane 5) were also incubated with the p-ERK-inhibitor peptide (lane 6). […] The percent adjusted volume as determined by a densitometric analysis software to compare net band densities was as follows: lane 1-19, lane 2-14, lane 3-14, lane 4-8.8, lane 5-11, lane 6-2.1.
FIGS. 32a-b are Western blot analyses depicting the effect of ADOPeps on the level of phosphorylated ERK. Endothelial cells (EC) from cord 1 (FIG. 32a) or cord 2 (FIG. 32b) under hypoxia (5 hours) were incubated for 20 or 30 minutes with 10 ng/ml of AdoPep1, AdoPep2 and AdoPep3 or remained untreated (i.e., under hypoxia without any peptide). Western Blot analyses of samples cell lysates were performed with anti Phospho ERK antibody on nitrocellulose membranes. […] The percent adjusted volume as determined by a densitometric analysis software to compare net band densities was as follows: FIG. 32a, lane 1-11, lane 2-13, lane 3-11, lane 4-5, lane 5-11, lane 6-13, lane 7-17, lane 8-16.7; FIG. 32b, lane 1-17, lane 2-22, lane 3-19, lane 4-7, lane 5-8, lane 6-13, lane 7-14, lane 8-1.

endothelial cells = assay: Tube formation of endothelial cells on Cultrex Basement Membrane Extract; settings: 10 ng/ml, 18 hours, starvation and normoxic conditions
Description: FIG. 27 is a graph depicting induction of tube formation using AdoPep1 and Motif A (SEQ ID NO:7) but not the scrambled sROY peptide. Endothelial cells were incubated in media without supplements for 24 hours, and 50,000 cells were then transferred in 500 μl medium to 24-well plates precoated with 250 μl Cultrex Basement Membrane Extract (with reduced growth factors) (R&D Systems, Minneapolis, Minn., USA). AdoPep1, Motif A and scrambled sROY peptides were added at an optimal concentration of 10 ng/ml (based on preliminary findings), and the slides were examined by light microscopy after 18 hours incubation. The results represent average±SD of three experiments using 3 different cords. The length of the network of connected cells (tube formation) was measured in micrometers in 5 different areas of each well using Image-Pro Plus Image software (Media Cybernetics, Silver Spring, Md., USA).

[2] = FIG. 30a experiment 1, 10 ng/ml, 5 minutes, hypoxia alone 4.5
[3] = FIG. 30a experiment 1, 10 ng/ml, 20 minutes, hypoxia alone 4.5
[4] = FIG. 30a experiment 1, 10 ng/ml, 30 minutes, hypoxia alone 4.5
[5] = FIG. 30a experiment 1, 10 ng/ml, 60 minutes, hypoxia alone 4.5
[6] = FIG. 30b experiment 2, 10 ng/ml, 5 minutes, hypoxia alone 4.21
[7] = FIG. 30b experiment 2, 10 ng/ml, 20 minutes, hypoxia alone 4.21
[8] = FIG. 30b experiment 2, 10 ng/ml, 30 minutes, hypoxia alone 4.21
[9] = FIG. 30b experiment 2, 10 ng/ml, 60 minutes, hypoxia alone 4.21
[10] = 20 minutes, absence of p-ERK-inhibitor peptide, hypoxia alone 11
[11] = 20 minutes, presence of p-ERK-inhibitor peptide

| Substance | migration of endothelial cells [1] | migration of endothelial cells ([1]; listed as ADOPep 1) | percent adjusted volume of phospho ERK½ band (ERK½; [2]) [%] | percent adjusted volume of phospho ERK½ band (ERK½; [3]) [%] | percent adjusted volume of phospho ERK½ band (ERK½; [4]) [%] | percent adjusted volume of phospho ERK½ band (ERK½; [5]) [%] | percent adjusted volume of phospho ERK½ band (ERK½; [6]) [%] | percent adjusted volume of phospho ERK½ band (ERK½; [7]) [%] | percent adjusted volume of phospho ERK½ band (ERK½; [8]) [%] | percent adjusted volume of phospho ERK½ band (ERK½; [9]) [%] | percent adjusted volume of pERK band (ERK½; [10]) [%] | percent adjusted volume of pERK band (ERK½; [11]) [%] | percent adjusted volume of phospho ERK band (ERK½; FIG. 32a cord 1, 10 ng/ml, 20 minutes, untreated 11, 13) [%] | percent adjusted volume of phospho ERK band (ERK½; FIG. 32a cord 1, 10 ng/ml, 30 minutes, untreated 11, 13) [%] | percent adjusted volume of phospho ERK band (ERK½; FIG. 32b cord 2, 10 ng/ml, 20 minutes, untreated 17) [%] | percent adjusted volume of phospho ERK band (ERK½; FIG. 32b cord 2, 10 ng/ml, 30 minutes, untreated 8) [%] | ERK½ phosphorylation (in words) (ERK½) | ERK½ phosphorylation (in words) (ERK½; listed as ADoPep1) | incubation time of maximal ERK phosphorylation (densitometry, data not shown) (ERK½) [min] | tube formation (length of the network of connected cells) (endothelial cells) |
| --- | --- | --- | --- | --- | --- | --- | --- | --- | --- | --- | --- | --- | --- | --- | --- | --- | --- | --- | --- | --- |
| HWRRAHLLPRLP [ADOPep1, ADAM15 derived peptide, amino acids 286-297 of the metalloprotease domain] | most significant increase in EC migration; also recorded: induced endothelial cell migration | induced increase in percent of migration | 9.3 | 13.7 | 13.3 | 11.2 | 12.4 | 12.5 | 14.8 | 10.9 | 14 | 8.8 | 17 | 16.7 | 22 | 13 | significant increase in ERK½ phosphorylation; also recorded: induced ERK½ phosphorylation | induction of ERK½ phosphorylation | 20 | significantly increased the length of the network of connected cells |
| HWRRP [Motif A, 5 amino acid motif peptide] | induced endothelial cell migration | – | 10.7 | 12.4 | 12.3 | 12.4 | 14.9 | 9.8 | 12.7 | 7.8 | 19 | 14 | – | – | – | – | significant increase in ERK½ phosphorylation; also recorded: induction of ERK½ phosphorylation | – | 20 to 60 | significantly increased the length of the network of connected cells |
